Reference: patent publication US20240131046A1, “ANTI-VIRAL AGENT” (NATIONAL UNIVERSITY CORPORATION HOKKAIDO UNIVERSITY, priority 2021, published 2024)

Tested on: SARS-CoV-2 (strain WK-521) and various variants thereof
Format: cell-based

Structure (SMILES): Nc1ncnc2c1c(CO)cn2[C@@H]1O[C@H](CO)[C@@H](O)[C@H]1O [HUP1108, 5-hydroxymethyltubercidin]
- virus amount released from infected cells / antiviral activity against variant strains: has antiviral activity against various variant strains of SARS-CoV-2
